Reference: ChEMBL document CHEMBL1201862, “PubChem BioAssay data set” (2004)
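Test compounds were applied to cells in 96-well plates for 48 hours at 5 doses. Abbreviation: GI50, concentration required for 50% inhibition of growth.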 Activity calls are given as the source filed them. Rule as the data show it: active = GI50 up to about 1.1 µM and inactive = higher.

Columns and labels:
Assay in all cases: NCI-60 cell line screen, 48 h
SF-295 = tested on: SF-295
SNB-19 = tested on: SNB-19
NCI-H460 = tested on: NCI-H460
SW-620 = tested on: SW-620
A549 = tested on: A549
HT-29 = tested on: HT-29
HOP-92 = tested on: HOP-92
HL-60 = tested on: HL-60
ACHN = tested on: ACHN
MDA-MB-435 = tested on: MDA-MB-435
UACC-257 = tested on: UACC-257
PC-3 = tested on: PC-3
MOLT-4 = tested on: MOLT-4
CAKI-1 = tested on: CAKI-1
OVCAR-4 = tested on: OVCAR-4
COLO 205 = tested on: COLO 205
RXF 393 = tested on: RXF 393
HCC 2998 = tested on: HCC 2998
U-251 = tested on: U-251
Malme-3M = tested on: Malme-3M
NCI-H522 = tested on: NCI-H522
IGROV-1 = tested on: IGROV-1
SN12C = tested on: SN12C
MDA-N = tested on: MDA-N
UACC-62 = tested on: UACC-62
SK-MEL-5 = tested on: SK-MEL-5
786-0 = tested on: 786-0
TK-10 = tested on: TK-10
KM12 = tested on: KM12
K562 = tested on: K562
HOP-62 = tested on: HOP-62
SK-MEL-28 = tested on: SK-MEL-28
A498 = tested on: A498
SK-OV-3 = tested on: SK-OV-3
NCI-H23 = tested on: NCI-H23
OVCAR-5 = tested on: OVCAR-5
CCRF-CEM = tested on: CCRF-CEM
T47D = tested on: T47D
UO-31 = tested on: UO-31
OVCAR-8 = tested on: OVCAR-8
DU-145 = tested on: DU-145
MDA-MB-231 = tested on: MDA-MB-231
SNB-75 = tested on: SNB-75
MCF7 = tested on: MCF7
SF-539 = tested on: SF-539
M14 = tested on: M14
SR = tested on: SR
SF-268 = tested on: SF-268
HCT-116 = tested on: HCT-116
NCI-H226 = tested on: NCI-H226
OVCAR-3 = tested on: OVCAR-3
BT-549 = tested on: BT-549
EKVX = tested on: EKVX
Hs-578T = tested on: Hs-578T
LOX IMVI = tested on: LOX IMVI
SK-MEL-2 = tested on: SK-MEL-2
RPMI-8226 = tested on: RPMI-8226
HCT-15 = tested on: HCT-15

CC(=O)Oc1ccc2c(c1)CC[C@@H]1C2CC[C@]2(C)C(=O)NC(=O)CC12 (some centres not stated)
GI50 (SF-295): > 100 µM (inactive)
GI50 (SNB-19): > 100 µM (inactive)
GI50 (NCI-H460): > 100 µM (inactive)
GI50 (SW-620): > 100 µM (inactive)
GI50 (A549): > 100 µM (inactive)
GI50 (HT-29): > 100 µM (inactive)
GI50 (HOP-92): > 100 µM (inactive)
GI50 (HL-60): > 100 µM (inactive)
GI50 (ACHN): > 100 µM (inactive)
GI50 (MDA-MB-435): > 100 µM (inactive)
GI50 (UACC-257): > 100 µM (inactive)
GI50 (PC-3): > 100 µM (inactive)
GI50 (MOLT-4): > 100 µM (inactive)
GI50 (CAKI-1): > 100 µM (inactive)
GI50 (OVCAR-4): > 100 µM (inactive)
GI50 (COLO 205): > 100 µM (inactive)
GI50 (RXF 393): > 100 µM (inactive)
GI50 (HCC 2998): > 100 µM (inactive)
GI50 (U-251): > 100 µM (inactive)
GI50 (Malme-3M): > 100 µM (inactive)
GI50 (NCI-H522): > 100 µM (inactive)
GI50 (IGROV-1): > 100 µM (inactive)
GI50 (SN12C): > 100 µM (inactive)
GI50 (MDA-N): > 100 µM (inactive)
GI50 (UACC-62): > 100 µM (inactive)
GI50 (SK-MEL-5): > 100 µM (inactive)
GI50 (786-0): > 100 µM (inactive)
GI50 (TK-10): > 100 µM (inactive)
GI50 (KM12): > 100 µM (inactive)
GI50 (K562): > 100 µM (inactive)
GI50 (HOP-62): > 100 µM (inactive)
GI50 (SK-MEL-28): > 100 µM (inactive)
GI50 (A498): > 100 µM (inactive)
GI50 (SK-OV-3): > 100 µM (inactive)
GI50 (NCI-H23): > 100 µM (inactive)
GI50 (OVCAR-5): > 100 µM (inactive)
GI50 (CCRF-CEM): > 100 µM (inactive)
GI50 (T47D): > 100 µM (inactive)
GI50 (UO-31): > 100 µM (inactive)
GI50 (OVCAR-8): > 100 µM (inactive)
GI50 (DU-145): > 100 µM (inactive)
GI50 (MDA-MB-231): > 100 µM (inactive)
GI50 (SNB-75): > 100 µM (inactive)
GI50 (MCF7): > 100 µM (inactive)
GI50 (SF-539): > 100 µM (inactive)
GI50 (M14): > 100 µM (inactive)
GI50 (SR): 91.4 µM (inactive)
GI50 (SF-268): > 100 µM (inactive)
GI50 (HCT-116): > 100 µM (inactive)
GI50 (NCI-H226): > 100 µM (inactive)
GI50 (OVCAR-3): > 100 µM (inactive)
GI50 (BT-549): > 100 µM (inactive)
GI50 (EKVX): 23.9 µM (inactive)
GI50 (Hs-578T): > 100 µM (inactive)

C=C1C(=O)OC2/C=C(/CO)C3(O)CC(O)C(C)(CC(OC(=O)/C(C)=C/C)C12)O3 (configuration not stated)
GI50 (SF-295): 36.3 µM (inactive)
GI50 (SNB-19): 36.5 µM (inactive)
GI50 (LOX IMVI): 11 µM (inactive)
GI50 (NCI-H460): 14.9 µM (inactive)
GI50 (SW-620): 3.33 µM (inactive)
GI50 (A549): 32.8 µM (inactive)
GI50 (HT-29): 8.09 µM (inactive)
GI50 (HOP-92): 9.91 µM (inactive)
GI50 (HL-60): 6.21 µM (inactive)
GI50 (ACHN): 6.82 µM (inactive)
GI50 (MDA-MB-435): 9.42 µM (inactive)
GI50 (UACC-257): 15.4 µM (inactive)
GI50 (PC-3): 26.3 µM (inactive)
GI50 (SK-MEL-2): 22.4 µM (inactive)
GI50 (MOLT-4): 2.47 µM (inactive)
GI50 (CAKI-1): 4.33 µM (inactive)
GI50 (OVCAR-4): 22.3 µM (inactive)
GI50 (COLO 205): 4.73 µM (inactive)
GI50 (RXF 393): 2.81 µM (inactive)
GI50 (HCC 2998): 10.6 µM (inactive)
GI50 (U-251): 18.5 µM (inactive)
GI50 (Malme-3M): 10.2 µM (inactive)
GI50 (NCI-H522): 2.4 µM (inactive)
GI50 (IGROV-1): 17.2 µM (inactive)
GI50 (SN12C): 15.7 µM (inactive)
GI50 (MDA-N): 10.2 µM (inactive)
GI50 (UACC-62): 6.62 µM (inactive)
GI50 (SK-MEL-5): 11.1 µM (inactive)
GI50 (786-0): 10.1 µM (inactive)
GI50 (TK-10): 11.9 µM (inactive)
GI50 (KM12): 20.5 µM (inactive)
GI50 (K562): 4.47 µM (inactive)
GI50 (HOP-62): 49.3 µM (inactive)
GI50 (SK-MEL-28): 7.64 µM (inactive)
GI50 (A498): 20.9 µM (inactive)
GI50 (SK-OV-3): 21.4 µM (inactive)
GI50 (NCI-H23): 13.6 µM (inactive)
GI50 (RPMI-8226): 2.51 µM (inactive)
GI50 (OVCAR-5): 21 µM (inactive)
GI50 (CCRF-CEM): 2.1 µM (inactive)
GI50 (T47D): 10.9 µM (inactive)
GI50 (UO-31): 20.4 µM (inactive)
GI50 (OVCAR-8): 7.66 µM (inactive)
GI50 (DU-145): 18.5 µM (inactive)
GI50 (MDA-MB-231): 15.3 µM (inactive)
GI50 (SNB-75): 39.2 µM (inactive)
GI50 (MCF7): 6.73 µM (inactive)
GI50 (SF-539): 23.9 µM (inactive)
GI50 (M14): 17.7 µM (inactive)
GI50 (SR): 4.57 µM (inactive)
GI50 (SF-268): 11 µM (inactive)
GI50 (HCT-15): 7.57 µM
GI50 (HCT-116): 6.73 µM (inactive)
GI50 (NCI-H226): 18.5 µM (inactive)
GI50 (OVCAR-3): 10.2 µM (inactive)
GI50 (BT-549): 4.52 µM (inactive)
GI50 (EKVX): 18.8 µM (inactive)
GI50 (Hs-578T): 53.5 µM (inactive)
